Test results: US11225491B2, “Thiazolo-pyrimidine HIV-1 reverse transcriptase inhibitor, preparation method therefor, and uses thereof” (priority 2018, dated 2022)
Like-named read-outs stand apart in the source and are kept apart here.

How the values were obtained:
WT HIV-1 strain (IIIB) = test: Anti-HIV activity in MT-4 cells, MTT method, WT strain IIIB; format: cell-based; conditions: for SI IIIB: selectivity index, ratio of CC50/EC50, strain IIIB
[1] = test system: HIV-1 K103N+Y181C (RES056); test: microbe, parasite or virus in culture; format: cell-based; conditions: for EC50: Human immunodeficiency virus 1, MT4, read-out: EC50 RES056; for SI RES056: selectivity index, ratio of CC50/EC50, strain RES056
[2] = test system: mutant HIV-1 strain L100I; test: microbe, parasite or virus in culture; format: cell-based; conditions: Human immunodeficiency virus 1, MT4, read-out: EC50 L100I
[3] = test system: mutant HIV-1 strain Y181C; test: microbe, parasite or virus in culture; format: cell-based; conditions: Human immunodeficiency virus 1, MT4, read-out: EC50 Y181C
[4] = test system: mutant HIV-1 strain Y188L; test: microbe, parasite or virus in culture; format: cell-based; conditions: Human immunodeficiency virus 1, MT4, read-out: EC50 Y188L
[5] = test system: mutant HIV-1 strain E138K; test: microbe, parasite or virus in culture; format: cell-based; conditions: Human immunodeficiency virus 1, MT4, read-out: EC50 E138K
[6] = test system: mutant HIV-1 strain F227L + V106A; test: microbe, parasite or virus in culture; format: cell-based; conditions: Human immunodeficiency virus 1, MT4, read-out: EC50 F227L + V106A
in vitro = conditions: human
[7] = Cytotoxicity in mock-infected MT-4 cells, MTT method; conditions: human
[8] = test system: mutant HIV-1 strain K103N; test: microbe, parasite or virus in culture; format: cell-based; conditions: Human immunodeficiency virus 1, MT4, read-out: EC50 K103N
[9] = Human immunodeficiency virus 1, MT4, 50% protection of MT-4 cell cultures against HIV-1-induced cytopathic effect, MTT method, strain IIIB, read-out: EC50 IIIB

Row | Compound | EC50 (WT HIV-1 strain (IIIB); [9]) [nM] | EC50 [1] [nM] | EC50 [2] [nM] | EC50 [3] [nM] | EC50 [4] [nM] | EC50 [5] [nM] | EC50 [6] [nM] | CC50 at 5 days (in vitro) [nM] | EC50 (WT HIV-1 strain (IIIB); Human immunodeficiency virus 1, IIIB, MT4, read-out: EC50 IIIB) [nM] | CC50 at 5 days [7] [nM] | SI IIIB (WT HIV-1 strain (IIIB)) | SI RES056 [1] | EC50 [8] [nM]
1 | Cc1cc(C#N)cc(C)c1Oc1nc(Nc2ccc(C#N)cc2)nc(N)c1Br [ETR, Etravirine, reference compound] | 5.1 ± 0.8 | 45.4 ± 15.5 | 6 ± 1.5 | 14.5 ± 8.2 | 20.4 ± 8.6 | 9.7 ± 6.9 | 19.7 ± 7.3 | > 4590 | – | – | – | – | –
2 | Cc1ccnc2c1NC(=O)c1cccnc1N2C1CC1 [NVP, Nevirapine, reference compound] | – | > 9510 | – | – | – | – | – | – | 163 ± 41.2 | > 9510 | – | – | –
3 | Cc1cc(C#N)cc(C)c1Oc1nc(NC2CCN(Cc3ccc(S(N)(=O)=O)cc3)CC2)nc2ncsc12 [SZ1] | 2.2 ± 0.9 | 26.1 ± 1.5 | 7.8 ± 0.2 | 6.7 ± 1.2 | 11.4 ± 2.3 | 6.5 ± 1.5 | 18.8 ± 4.5 | 25100 ± 749 | – | – | 11071 | 961 | 3.9 ± 1.9
4 | CNS(=O)(=O)c1ccc(CN2CCC(Nc3nc(Oc4c(C)cc(C#N)cc4C)c4scnc4n3)CC2)cc1 [SZ2] | 4.8 ± 0.1 | 19.4 ± 13.1 | 8.7 ± 0.3 | 7.3 ± 0.1 | 14 ± 2 | 9.2 ± 0.7 | 22.6 ± 3.8 | 13700 ± 3470 | – | – | 2828 | 710 | 5.1 ± 1
5 | Cc1cc(C#N)cc(C)c1Oc1nc(NC2CCN(Cc3ccc(S(=O)(=O)NC4CC4)cc3)CC2)nc2ncsc12 [SZ3] | 5 ± 0.2 | 41.3 ± 5.2 | – | – | – | – | – | 23200 ± 4520 | – | – | 4564 | 561 | –
6 | Cc1cc(C#N)cc(C)c1Oc1nc(NC2CCN(Cc3ccc(S(=O)(=O)N4CCOCC4)cc3)CC2)nc2ncsc12 [SZ4] | 3.7 ± 0.8 | 94.4 ± 0.5 | – | – | – | – | – | 17600 ± 2370 | – | – | 4665 | 187 | –
7 | Cc1cc(C#N)cc(C)c1Oc1nc(NC2CCN(Cc3ccc(C(N)=O)cc3)CC2)nc2ncsc12 [SZ5] | > 15600 | > 15600 | – | – | – | – | – | 15500 ± 2840 | – | – | <1 | <1 | –
8 | Cc1cc(C#N)cc(C)c1Oc1nc(NC2CCN(Cc3ccc(S(C)(=O)=O)cc3)CC2)nc2ncsc12 [SZ6, 3,5-dimethyl-4-((5-((1-(4-(methylsulfonyl)benzyl)piperidin-4-yl)amino)thiazolo[4,5-d]pyrimidin-7-yl)oxy)benzonitrile] | 2.2 ± 0.6 | 27.4 ± 0.3 | 3.2 ± 0.7 | 7 ± 0.9 | 10.7 | 6.1 ± 1.1 | 15.4 ± 2.3 | 10900 ± 2750 | – | – | 4816 | 400 | 3.8 ± 2.8
9 | Cc1cc(C#N)cc(C)c1Oc1nc(NC2CCN(Cc3ccncc3)CC2)nc2ncsc12 [SZ7, 3,5-dimethyl-4-((5-((1-(pyridin-4-ylmethyl)piperidin-4-yl)amino)thiazolo[4,5-d]pyrimidin-7-yl)oxy)benzonitrile] | 1.8 ± 0.4 | 24.7 ± 1.9 | 5.6 ± 2.2 | 5.8 ± 2.2 | 7.7 ± 1 | 5.5 ± 1.2 | 32.9 ± 23.8 | 30300 ± 760 | – | – | 16818 | 1227 | 1.9 ± 0.6
10 | Cc1cc(C#N)cc(C)c1Oc1nc(NC2CCN(Cc3ccc([N+](=O)[O-])cc3)CC2)nc2ncsc12 [SZ8, 3,5-dimethyl-4-((5-((1-(4-nitrobenzyl)piperidin-4-yl)amino)thiazolo[4,5-d]pyrimidin-7-yl)oxy)benzonitrile] | 3.4 ± 0.2 | 129 ± 4.5 | – | – | – | – | – | 5170 ± 134 | – | – | 1482 | 40 | –
11 | Cc1cc(C#N)cc(C)c1Oc1nc(NC2CCN(Cc3cccc(C(N)=O)c3)CC2)nc2ncsc12 [SZ9] | 1.3 | 559 ± 8.5 | – | – | – | – | – | 27300 ± 965 | – | – | 20099 | 49 | –
12 | Cc1cc(C#N)cc(C)c1Oc1nc(NC2CCN(Cc3ccc(S(N)(=O)=O)cc3)CC2)nc2scnc12 [TZ1] | 1.6 ± 0.2 | 18.3 ± 2.3 | 9.6 ± 1.5 | 6.5 ± 1 | 10.8 ± 0.6 | 7.9 ± 0.1 | 16 ± 4.6 | 23200 ± 1750 | – | – | 14194 | 1265 | 1.9 ± 0.1
13 | Cc1cc(C#N)cc(C)c1Oc1nc(NC2CCN(Cc3ccc(C(N)=O)cc3)CC2)nc2scnc12 [TZ2] | 1.6 ± 0.1 | 28.1 ± 13 | 6.3 ± 2.8 | 5.1 ± 0.1 | 7.2 ± 0.2 | 5.2 ± 0.8 | 20.3 ± 2.6 | 27100 ± 1300 | – | – | 16412 | 965 | 1.6 ± 0.4
14 | Cc1cc(C#N)cc(C)c1Oc1nc(NC2CCN(Cc3ccc(S(C)(=O)=O)cc3)CC2)nc2scnc12 [TZ3, 3,5-dimethyl-4-((5-((1-(4-(methylsulfonyl)benzyl)piperidin-4-yl)amino)thiazolo[5,4-d]pyrimidin-7-yl)oxy)benzonitrile] | 2.3 ± 0.7 | 18.1 ± 1.1 | 5.6 ± 0.7 | 7.5 ± 0.6 | 7.1 ± 0.2 | 6.6 ± 0.1 | 15.2 ± 3.4 | 14300 ± 5500 | – | – | 6212 | 791 | 3.3 ± 0.3
15 | Cc1cc(C#N)cc(C)c1Oc1nc(NC2CCN(Cc3ccncc3)CC2)nc2scnc12 [TZ4, 3,5-dimethyl-4-((5-((1-(pyridin-4-ylmethyl)piperidin-4-yl)amino)thiazolo[5,4-d]pyrimidin-7-yl)oxy)benzonitrile] | 2.7 | 26.8 ± 0.1 | 13.7 ± 7.1 | 5.8 ± 0.1 | 6.6 ± 1 | 6.5 ± 0.3 | 30.9 ± 6.2 | 28700 ± 489 | – | – | 10447 | 1074 | 3.3 ± 2.3
16 | Cc1cc(C#N)cc(C)c1Oc1nc(NC2CCN(Cc3ccc([N+](=O)[O-])cc3)CC2)nc2scnc12 [TZ5, 3,5-dimethyl-4-((5-((1-(4-nitrobenzyl)piperidin-4-yl)amino)thiazolo[5,4-d]pyrimidin-7-yl)oxy)benzonitrile] | 8.2 ± 1.9 | 126 ± 16 | – | – | – | – | – | 5680 ± 423 | – | – | 687 | 45 | –
17 | Cc1cc(C#N)cc(C)c1Oc1nc(NC2CCN(Cc3cccc(C(N)=O)c3)CC2)nc2scnc12 [TZ6] | 3 ± 0.6 | 222 ± 47 | – | – | – | – | – | 28800 ± 634 | – | – | 9565 | 130 | –
